Tested on: not listed separately
Test: Determination of compound Cmax and AUC
Assay type: in vivo
Details: rat; Sprague-Dawley rats, oral gavage, serum 0.5-4 h; actual oral dose (mg/kg) given
Experimental: Sprague-Dawley rats were orally gavaged with test article (2.5 mg/kg) and serum was collected at 0.5, 1, 2 and 4 h. Serum samples were treated with acetonitrile, precipitated proteins removed by centrifugation and supernatants analyzed by LC/MS/MS and compared against a standard curve to determine compound concentration. All compounds were orally dosed at the dosage shown, and pharmacokinetic parameters determined as described in the text.
Work on CN1Cc2c(Cl)cc(Cl)cc2C(c2ccc(S(=O)(=O)NCCOCCOCCOCCNC(=O)c3ccc(C(=O)NCCOCCOCCOCCNS(=O)(=O)c4ccc(C5CN(C)Cc6c(Cl)cc(Cl)cc65)cc4)cc3)cc2)C1 (stereo not shown) [Example 233, N1,N4-bis(2-(2-(2-(2-(4-(6,8-dichloro-2-methyl-1,2,3,4-tetrahydroisoquinolin-4-yl)phenylsulfonamido)ethoxy)ethoxy)ethoxy)ethyl)terephthalamide] yielded an AUC of less than 6.8 ng·h/mL and a Cmax of less than 2.6 ng/mL.

Target: T1, rat NHE-3 (Rattus norvegicus, UniProt P26433)
T1 construct: expressed in transfected cells; host or cells: Opossum kidney (OK) cells (ATCC), electroporated
T1 sequence (P26433 29-831): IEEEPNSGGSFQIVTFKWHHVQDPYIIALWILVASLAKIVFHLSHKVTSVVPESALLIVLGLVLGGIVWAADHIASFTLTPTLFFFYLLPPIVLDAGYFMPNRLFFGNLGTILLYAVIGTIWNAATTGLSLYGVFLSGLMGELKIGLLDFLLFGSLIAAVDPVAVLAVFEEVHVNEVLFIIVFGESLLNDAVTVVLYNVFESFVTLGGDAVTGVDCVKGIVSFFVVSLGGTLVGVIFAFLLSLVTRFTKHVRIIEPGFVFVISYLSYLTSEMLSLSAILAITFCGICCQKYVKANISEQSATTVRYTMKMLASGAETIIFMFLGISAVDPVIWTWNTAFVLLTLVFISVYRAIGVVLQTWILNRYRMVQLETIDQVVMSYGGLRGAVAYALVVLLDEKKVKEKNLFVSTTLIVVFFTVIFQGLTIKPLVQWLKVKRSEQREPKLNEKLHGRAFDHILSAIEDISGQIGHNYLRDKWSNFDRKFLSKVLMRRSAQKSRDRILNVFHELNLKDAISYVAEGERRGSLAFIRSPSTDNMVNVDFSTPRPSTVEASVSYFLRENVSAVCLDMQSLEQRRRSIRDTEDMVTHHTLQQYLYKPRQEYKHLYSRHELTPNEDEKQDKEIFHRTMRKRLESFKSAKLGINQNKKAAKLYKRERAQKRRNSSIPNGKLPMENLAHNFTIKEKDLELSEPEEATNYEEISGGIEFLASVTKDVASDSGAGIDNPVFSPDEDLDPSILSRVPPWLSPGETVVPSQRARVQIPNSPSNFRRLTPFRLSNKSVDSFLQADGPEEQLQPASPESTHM
Test: Cell-based assay of NHE-3 activity (Pharmacological Test Example 1)
Details: not given
Procedure, shortened: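 OK cells electroporated with rat NHE-3, loaded with 5 uM BCECF-AM in NH4Cl-HEPES (pH 7.4) for 30 min at room temperature, then acid-loaded 10 min in Na+-free choline buffer. Na+-dependent H+ antiport read as initial rate of pH-dye change; pIC50 from 3-6 replicate averages.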
In the case of CN1Cc2c(Cl)cc(Cl)cc2C(c2ccc(S(=O)(=O)NCCOCCOCCOCCNC(=O)c3ccc(C(=O)NCCOCCOCCOCCNS(=O)(=O)c4ccc(C5CN(C)Cc6c(Cl)cc(Cl)cc65)cc4)cc3)cc2)C1 (stereo not shown) [Example 233, N1,N4-bis(2-(2-(2-(2-(4-(6,8-dichloro-2-methyl-1,2,3,4-tetrahydroisoquinolin-4-yl)phenylsulfonamido)ethoxy)ethoxy)ethoxy)ethyl)terephthalamide], the “rat NHE-3 Average pIC50” value is reported as less than 5.0.

Tested on: not listed separately
Test: Parallel artificial membrane permeability assay (PAMPA)
Details: pH 7.4
With NC(N)=Nc1nc(-c2ccc(N3CCN(CC(=O)O)CC3)cc2)c2cc(Cl)ccc2n1 [Example 61, 2-(4-(4-(6-chloro-2-(diaminomethyleneamino)quinazolin-4-yl)phenyl)piperazin-1-yl)acetic acid] the Papp A→B at 3 h, 20 uM was 0.1 ×10⁻⁶ cm/s. Work on COCCNC(=O)NS(=O)(=O)c1ccc(Oc2c(F)cc(/C=C(\C)C(=O)N=C(N)N)cc2F)cc1 [Example 58, (E)-N-(diaminomethylene)-3-(3,5-difluoro-4-(4-(N-(2-methoxyethylcarbamoyl)sulfamoyl)phenoxy)phenyl)-2-methylacrylamide] yielded a Papp A→B at 3 h, 20 uM of 0.2 ×10⁻⁶ cm/s. NC(N)=Nc1nc(-c2cccc(N3CCN(CCCC(=O)O)CC3)c2)c2cc(Cl)ccc2n1 [Example 70, 4-(4-(3-(6-chloro-2-(diaminomethyleneamino)quinazolin-4-yl)phenyl)piperazin-1-yl)butanoic acid] gave a Papp A→B at 3 h, 20 uM of 0.4 ×10⁻⁶ cm/s. Work on CN1Cc2c(Cl)cc(Cl)cc2C(c2ccc(S(=O)(=O)Nc3ccc(P(=O)(O)O)cc3)cc2)C1 (stereo not shown) [Example 76, 4-(4-(6,8-dichloro-2-methyl-1,2,3,4-tetrahydroisoquinolin-4-yl)phenylsulfonamido)phenylphosphonic acid] yielded a Papp A→B at 3 h, 20 uM of 0.2 ×10⁻⁶ cm/s. For C/C(=C\c1cc(F)c(Oc2ccc(S(=O)(=O)NCP(=O)(O)O)cc2)c(F)c1)C(=O)N=C(N)N [Example 56, (E)-(4-(4-(3-(diaminomethyleneamino)-2-methyl-3-oxoprop-1-enyl)-2,6-difluorophenoxy)phenylsulfonamido)methylphosphonic acid], the Papp A→B at 3 h, 20 uM was 0.5 ×10⁻⁶ cm/s. In the case of CN1Cc2c(Cl)cc(Cl)cc2C(c2ccc(S(=O)(=O)NCc3ccc(CNS(=O)(=O)c4ccc(C5CN(C)Cc6c(Cl)cc(Cl)cc65)cc4)cc3)cc2)C1 (stereo not shown) [Example 26, N,N′-(1,4-phenylenebis(methylene))bis(4-(6,8-dichloro-2-methyl-1,2,3,4-tetrahydroisoquinolin-4-yl)benzenesulfonamide)], the Papp A→B at 3 h, 20 uM is reported as less than 0.02 ×10⁻⁶ cm/s. For C/C(=C\c1cc(F)c(Oc2ccc(S(=O)(=O)Nc3ccc(CP(=O)(O)O)cc3)cc2)c(F)c1)C(=O)N=C(N)N [Example 53, (E)-4-(4-(4-(3-(diaminomethyleneamino)-2-methyl-3-oxoprop-1-enyl)-2,6-difluorophenoxy)phenylsulfonamido)benzylphosphonic acid], the Papp A→B at 3 h, 20 uM was 1.6 ×10⁻⁶ cm/s. CN1Cc2c(Cl)cc(Cl)cc2C(c2cccc(S(=O)(=O)NCCCS(=O)(=O)O)c2)C1 (stereo not shown) [Example 7, 3-(3-(6,8-dichloro-2-methyl-1,2,3,4-tetrahydroisoquinolin-4-yl)phenylsulfonamido)propane-1-sulfonic acid] showed a Papp A→B at 3 h, 20 uM of 0.5 ×10⁻⁶ cm/s. CN1Cc2c(Cl)cc(Cl)cc2C(c2ccc(S(=O)(=O)N(CC(=O)O)CP(=O)(O)O)cc2)C1 (stereo not shown) [Example 72, 2-(4-(6,8-dichloro-2-methyl-1,2,3,4-tetrahydroisoquinolin-4-yl)-N-(phosphonomethyl)phenylsulfonamido)acetic acid] showed a Papp A→B at 3 h, 20 uM of 0.2 ×10⁻⁶ cm/s. CN1Cc2c(Cl)cc(Cl)cc2C(c2ccc(NC(=O)N[C@@H](CCC(=O)O)C(=O)O)cc2)C1 (stereo partly shown) [Example 36] gave a Papp A→B at 3 h, 20 uM of 0.2 ×10⁻⁶ cm/s. CN1Cc2c(Cl)cc(Cl)cc2C(c2ccc(S(=O)(=O)N(CCC(=O)O)CCC(=O)O)cc2)C1 (stereo not shown) [Example 15, 3,3′-(4-(6,8-dichloro-2-methyl-1,2,3,4-tetrahydroisoquinolin-4-yl)phenylsulfonylazanediyl)dipropanoic acid] gave a Papp A→B at 3 h, 20 uM of 0.05 ×10⁻⁶ cm/s. In the case of CN1Cc2c(Cl)cc(Cl)cc2C(c2cccc(NC(=O)N[C@@H](CC(=O)O)C(=O)O)c2)C1 (stereo partly drawn) [Example 35, (2S)-2-(3-(3-(6,8-dichloro-2-methyl-1,2,3,4-tetrahydroisoquinolin-4-yl)phenyl)ureido)succinic acid], the Papp A→B at 3 h, 20 uM is reported as 0.17 ×10⁻⁶ cm/s. With CCNC(=O)NS(=O)(=O)c1ccc(Oc2c(F)cc(/C=C(\C)C(=O)N=C(N)N)cc2F)cc1 [Example 74] the Papp A→B at 3 h, 20 uM was 0.45 ×10⁻⁶ cm/s. With CN1Cc2c(Cl)cc(Cl)cc2C(c2ccc(S(=O)(=O)Nc3ccc(CP(=O)(O)O)cc3)cc2)C1 (stereo not shown) [Example 13, (4-(4-(6,8-dichloro-2-methyl-1,2,3,4-tetrahydroisoquinolin-4-yl)phenylsulfonamido)phenyl)methylphosphonic acid] the Papp A→B at 3 h, 20 uM was 0.3 ×10⁻⁶ cm/s. CN1Cc2c(Cl)cc(Cl)cc2C(c2ccc(S(=O)(=O)NCCOCCOCCNS(=O)(=O)c3ccc(C4CN(C)Cc5c(Cl)cc(Cl)cc54)cc3)cc2)C1 (stereo not shown) [Example 27, N,N′-(2,2′-(ethane-1,2-diylbis(oxy))bis(ethane-2,1-diyl))bis(4-(6,8-dichloro-2-methyl-1,2,3,4-tetrahydroisoquinolin-4-yl)benzenesulfonamide)] gave a Papp A→B at 3 h, 20 uM of less than 0.02 ×10⁻⁶ cm/s. CN1Cc2c(Cl)cc(Cl)cc2C(c2cccc(NC(=O)N[C@@H](CCC(=O)O)C(=O)O)c2)C1 (stereo partly drawn) [Example 37, (2S)-2-(3-(3-(6,8-dichloro-2-methyl-1,2,3,4-tetrahydroisoquinolin-4-yl)phenyl)ureido)pentanedioic acid] showed a Papp A→B at 3 h, 20 uM of 0.1 ×10⁻⁶ cm/s. CN1Cc2c(Cl)cc(Cl)cc2C(c2cccc(S(=O)(=O)Nc3ccc(CP(=O)(O)O)cc3)c2)C1 (stereo not shown) [Example 3, 4-(3-(6,8-dichloro-2-methyl-1,2,3,4-tetrahydroisoquinolin-4-yl)phenylsulfonamido)benzylphosphonic acid] gave a Papp A→B at 3 h, 20 uM of 0.8 ×10⁻⁶ cm/s. CN1Cc2c(Cl)cc(Cl)cc2C(c2ccc(NC(=O)N[C@@H](CC(=O)O)C(=O)O)cc2)C1 (stereo partly drawn) [Example 34, (2S)-2-(3-(4-(6,8-dichloro-2-methyl-1,2,3,4-tetrahydroisoquinolin-4-yl)phenyl)ureido)succinic acid] gave a Papp A→B at 3 h, 20 uM of 0.2 ×10⁻⁶ cm/s. Molecule CN1Cc2c(Cl)cc(Cl)cc2C(c2cccc(S(=O)(=O)N(CC(=O)O)CP(=O)(O)O)c2)C1 (stereo not shown) [Example 8, 2-(3-(6,8-dichloro-2-methyl-1,2,3,4-tetrahydroisoquinolin-4-yl)-N-(phosphonomethyl)phenylsulfonamido)acetic acid] has a Papp A→B at 3 h, 20 uM of 0.2 ×10⁻⁶ cm/s. Molecule NC(N)=Nc1nc(-c2ccc(N3CCN(CCCC(=O)O)CC3)cc2)c2cc(Cl)ccc2n1 [Example 73, 4-(4-(4-(6-chloro-2-(diaminomethyleneamino)quinazolin-4-yl)phenyl)piperazin-1-yl)butanoic acid] has a Papp A→B at 3 h, 20 uM of 0.27 ×10⁻⁶ cm/s. With CN1Cc2c(Cl)cc(Cl)cc2C(c2cccc(S(=O)(=O)NCCN(CCNS(=O)(=O)c3cccc(C4CN(C)Cc5c(Cl)cc(Cl)cc54)c3)CCNS(=O)(=O)c3cccc(C4CN(C)Cc5c(Cl)cc(Cl)cc54)c3)c2)C1 (stereo not shown) [Example 16, N,N′,N″-(2,2′,2″-nitrilotris(ethane-2,1-diyl))tris(3-(6,8-dichloro-2-methyl-1,2,3,4-tetrahydroisoquinolin-4-yl)benzenesulfonamide)] the Papp A→B at 3 h, 20 uM was less than 0.02 ×10⁻⁶ cm/s. In the case of C/C(=C\c1cc(F)c(Oc2ccc(S(=O)(=O)N(CC(=O)O)CP(=O)(O)O)cc2)c(F)c1)C(=O)N=C(N)N [Example 57, (E)-2-(4-(4-(3-(diaminomethyleneamino)-2-methyl-3-oxoprop-1-enyl)-2,6-difluorophenoxy)-N-(phosphonomethyl)phenylsulfonamido)acetic acid], the Papp A→B at 3 h, 20 uM is reported as 1.65 ×10⁻⁶ cm/s.

— patent publication US20190374533A1, “COMPOUNDS AND METHODS FOR INHIBITING NHE-MEDIATED ANTIPORT IN THE TREATMENT OF DISORDERS ASSOCIATED WITH FLUID RETENTION OR SALT OVERLOAD AND GASTROINTESTINAL TRACT DISORDERS” (Ardelyx, Inc., priority 2008, published 2019)
